We go through four molecules from article PMC7827406, “Structure–Activity Relationship (SAR) Study of Spautin-1 to Entail the Discovery of Novel NEK4 Inhibitors” (International Journal of Molecular Sciences, 2021).

Assay in all cases: biochemical
Parameters in all cases: Eurofins KinaseProfiler full panel at Km ATP, residual kinase activity (%) relative to DMSO

In one test the target is T1, CaMKIV(h) (Homo sapiens, UniProt Q16566).
T1 construct: gene CAMK4
T1 sequence (Q16566 1-473): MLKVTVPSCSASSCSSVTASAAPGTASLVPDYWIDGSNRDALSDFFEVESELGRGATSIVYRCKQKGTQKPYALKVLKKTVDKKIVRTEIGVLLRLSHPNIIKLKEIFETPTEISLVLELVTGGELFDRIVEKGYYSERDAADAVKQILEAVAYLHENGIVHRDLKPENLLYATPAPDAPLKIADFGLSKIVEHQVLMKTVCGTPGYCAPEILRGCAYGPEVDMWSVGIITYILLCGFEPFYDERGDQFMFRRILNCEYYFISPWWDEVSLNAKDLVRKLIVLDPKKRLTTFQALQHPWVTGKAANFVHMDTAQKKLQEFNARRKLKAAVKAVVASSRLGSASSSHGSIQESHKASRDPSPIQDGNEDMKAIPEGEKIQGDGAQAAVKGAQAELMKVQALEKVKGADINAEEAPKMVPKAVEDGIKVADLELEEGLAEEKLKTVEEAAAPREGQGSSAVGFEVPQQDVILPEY
In short, it runs like this:
(§1)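 Compounds screened at 10 µM in radiometric kinase activity assays at Km ATP, reported as remaining kinase activity (%). A KINOMEscan competition-binding screen at 10 µM measured DNA-tagged kinase retained on immobilized active-site ligand by qPCR.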

A further test addresses T2, MRCKα(h) (Homo sapiens, UniProt Q5VT25).
T2 construct: gene CDC42BPA
In short, it runs like this: as §1

Another test addresses T3, SGK2(h) (Homo sapiens, UniProt Q9HBY8).
T3 sequence (Q9HBY8 1-367): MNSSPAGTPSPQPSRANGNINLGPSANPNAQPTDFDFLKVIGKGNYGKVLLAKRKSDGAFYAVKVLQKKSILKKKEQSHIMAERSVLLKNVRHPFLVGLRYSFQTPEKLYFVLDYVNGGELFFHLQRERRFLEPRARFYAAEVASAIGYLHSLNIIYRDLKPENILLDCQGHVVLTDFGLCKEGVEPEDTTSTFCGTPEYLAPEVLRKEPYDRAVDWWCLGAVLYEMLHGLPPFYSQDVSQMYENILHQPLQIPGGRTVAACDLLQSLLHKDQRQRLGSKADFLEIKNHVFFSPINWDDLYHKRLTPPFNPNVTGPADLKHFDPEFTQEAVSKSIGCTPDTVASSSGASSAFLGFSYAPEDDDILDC
In short, it runs like this:
as §1

The target in a further test is T4, eEF-2K(h) (Homo sapiens, UniProt O00418).
T4 construct: gene EEF2K
T4 sequence (O00418 1-725): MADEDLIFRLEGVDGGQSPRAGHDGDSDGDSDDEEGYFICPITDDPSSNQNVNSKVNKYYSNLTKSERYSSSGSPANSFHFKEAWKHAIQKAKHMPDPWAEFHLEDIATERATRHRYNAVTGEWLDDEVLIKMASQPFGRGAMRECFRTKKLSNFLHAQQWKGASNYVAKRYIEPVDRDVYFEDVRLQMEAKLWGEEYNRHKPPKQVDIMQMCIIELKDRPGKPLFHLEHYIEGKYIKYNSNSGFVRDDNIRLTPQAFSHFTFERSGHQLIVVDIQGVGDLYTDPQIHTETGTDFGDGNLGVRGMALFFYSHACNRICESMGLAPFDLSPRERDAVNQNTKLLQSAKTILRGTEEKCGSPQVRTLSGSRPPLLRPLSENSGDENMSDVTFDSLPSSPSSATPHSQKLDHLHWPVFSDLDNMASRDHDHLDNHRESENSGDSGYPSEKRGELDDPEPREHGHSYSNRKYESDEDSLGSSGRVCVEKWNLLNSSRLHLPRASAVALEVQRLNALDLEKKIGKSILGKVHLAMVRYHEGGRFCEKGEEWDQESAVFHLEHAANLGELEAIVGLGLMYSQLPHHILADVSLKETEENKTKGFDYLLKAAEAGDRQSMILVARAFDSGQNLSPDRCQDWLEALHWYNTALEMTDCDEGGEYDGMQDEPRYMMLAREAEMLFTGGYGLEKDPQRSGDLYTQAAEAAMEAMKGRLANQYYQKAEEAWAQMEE
In short, it runs like this:
as §1

The target of a further test is mTOR(h) (Homo sapiens, UniProt P42345). In short, it runs like this:
as §1

Where [1] appears, read: read-out: Residual activity (%) Spautin-1 5aa.
Where [2] appears, read: read-out: Residual activity (%) 5as.
[3] abbreviates: read-out: Residual activity (%) 5at.
Setting [4] is: read-out: Residual activity (%) 5ay.

Read-outs that look alike come from different tables or passages of the source.

T2 sequence (Q5VT25 whole entry): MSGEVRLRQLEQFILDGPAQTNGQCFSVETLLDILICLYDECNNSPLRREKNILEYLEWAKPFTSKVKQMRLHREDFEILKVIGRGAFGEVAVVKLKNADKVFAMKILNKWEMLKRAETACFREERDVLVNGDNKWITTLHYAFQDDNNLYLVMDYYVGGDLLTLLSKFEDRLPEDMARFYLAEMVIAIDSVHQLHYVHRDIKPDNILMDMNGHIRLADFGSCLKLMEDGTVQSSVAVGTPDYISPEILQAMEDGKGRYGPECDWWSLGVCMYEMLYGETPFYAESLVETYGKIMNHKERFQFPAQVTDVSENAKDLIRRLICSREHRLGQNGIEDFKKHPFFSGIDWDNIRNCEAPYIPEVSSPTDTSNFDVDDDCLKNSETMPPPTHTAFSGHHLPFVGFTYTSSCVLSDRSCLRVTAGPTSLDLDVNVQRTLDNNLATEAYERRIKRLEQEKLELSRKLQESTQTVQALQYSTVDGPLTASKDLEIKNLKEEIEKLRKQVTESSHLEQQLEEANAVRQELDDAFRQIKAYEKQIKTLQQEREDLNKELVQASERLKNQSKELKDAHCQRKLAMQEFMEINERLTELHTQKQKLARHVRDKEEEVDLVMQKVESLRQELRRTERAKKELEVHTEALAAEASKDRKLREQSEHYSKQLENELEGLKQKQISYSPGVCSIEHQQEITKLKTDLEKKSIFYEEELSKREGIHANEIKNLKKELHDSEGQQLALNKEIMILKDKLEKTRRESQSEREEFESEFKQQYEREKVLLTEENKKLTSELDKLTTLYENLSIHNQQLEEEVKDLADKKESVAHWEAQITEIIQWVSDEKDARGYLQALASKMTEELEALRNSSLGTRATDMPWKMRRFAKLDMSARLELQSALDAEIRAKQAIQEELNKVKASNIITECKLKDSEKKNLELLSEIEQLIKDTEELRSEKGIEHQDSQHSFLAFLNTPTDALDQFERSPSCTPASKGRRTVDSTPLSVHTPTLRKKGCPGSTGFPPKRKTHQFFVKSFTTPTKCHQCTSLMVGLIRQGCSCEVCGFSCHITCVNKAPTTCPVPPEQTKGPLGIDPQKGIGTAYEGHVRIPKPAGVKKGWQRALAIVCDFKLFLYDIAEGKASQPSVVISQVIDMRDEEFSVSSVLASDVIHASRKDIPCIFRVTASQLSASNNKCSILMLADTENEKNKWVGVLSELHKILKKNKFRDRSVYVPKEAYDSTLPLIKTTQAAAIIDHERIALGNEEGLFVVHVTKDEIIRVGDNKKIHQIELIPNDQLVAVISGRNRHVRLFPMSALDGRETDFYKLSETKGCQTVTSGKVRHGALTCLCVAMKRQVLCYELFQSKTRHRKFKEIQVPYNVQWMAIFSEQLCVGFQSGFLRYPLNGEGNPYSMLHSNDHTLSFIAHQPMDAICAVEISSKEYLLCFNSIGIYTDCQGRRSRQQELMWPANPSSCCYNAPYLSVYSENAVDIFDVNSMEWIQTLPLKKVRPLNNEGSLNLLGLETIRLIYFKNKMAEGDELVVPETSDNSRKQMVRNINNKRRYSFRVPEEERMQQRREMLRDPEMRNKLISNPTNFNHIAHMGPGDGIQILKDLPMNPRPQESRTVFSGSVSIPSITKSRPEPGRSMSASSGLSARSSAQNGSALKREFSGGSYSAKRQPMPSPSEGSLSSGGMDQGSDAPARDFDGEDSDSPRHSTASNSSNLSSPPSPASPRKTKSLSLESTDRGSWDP

For the molecule `Fc1ccc(CNc2ncnc3ccc(F)cc23)cc1` [5aa, 6-Fluoro-N-(4-fluorobenzyl)-4-Quinazolinamine], the remaining activity at 10 µM at CaMKIV(h) (setting [1]) is 81%; on MRCKα(h) (setting [1]), 91%; at SGK2(h) (setting [1]), 108%; on eEF-2K(h) (setting [1]), 87%; at mTOR(h) (setting [1]), 79%.

On to `Fc1ccc(CCNc2ncnc3ccc(F)cc23)cc1` [5as, 6-Fluoro-N-[2-(4-Fluorophenyl)Ethyl]-4-Quinazolinamine], for which the remaining activity at 10 µM on CaMKIV(h) (setting [2]) is 75%; at MRCKα(h) (setting [2]), 93%; on SGK2(h) (setting [2]) it was 115%; on eEF-2K(h) (setting [2]), 85%; on mTOR(h) (setting [2]) it was 76%.

Turning to `Fc1ccc2ncnc(NCCc3ccc(Cl)cc3)c2c1` [5at, N-[2-(4-Chlorophenyl)Ethyl]-6-Fluoro-4-Quinazolinamine], the remaining activity at 10 µM on CaMKIV(h) (setting [3]) came out at 81%; on MRCKα(h) (setting [3]), 98%; at SGK2(h) (setting [3]), 89%; at eEF-2K(h) (setting [3]) it was 85%; at mTOR(h) (setting [3]), 80%.

In the case of `COc1ccc2ncnc(Nc3cccc(F)c3)c2c1` [5ay, N-(3-Fluorophenyl)-6-Methoxy-4-Quinazolinamine], the remaining activity at 10 µM at CaMKIV(h) (setting [4]) was 68%; on MRCKα(h) (setting [4]) it was 87%; at SGK2(h) (setting [4]), 103%; on eEF-2K(h) (setting [4]) it was 79%; at mTOR(h) (setting [4]), 77%.
